How the values were obtained:
CP1C = biological target: T1, CP1C (Zea mays, UniProt B4FS90); test: fluorogenic substrate cleavage assay, apoplastic fluid of overexpressing N. benthamiana; format: cell-based; conditions: 10 uM Z-LR-AMC, pH 6, 0.5 mM DTT; covalent irreversible active-site inhibitor
T1 sequence (B4FS90 150-389 limits assumed): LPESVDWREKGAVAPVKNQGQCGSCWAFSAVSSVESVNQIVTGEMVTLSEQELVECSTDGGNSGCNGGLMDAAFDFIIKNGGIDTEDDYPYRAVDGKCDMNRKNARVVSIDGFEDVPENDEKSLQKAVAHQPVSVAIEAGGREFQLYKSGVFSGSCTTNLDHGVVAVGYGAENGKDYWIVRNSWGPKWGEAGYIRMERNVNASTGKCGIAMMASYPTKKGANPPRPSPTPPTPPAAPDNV

CP1B = biological target: T2, CP1B (Zea mays, UniProt K7TP58); test: as above; format: cell-based
T2 construct: gene LOC100283284
T2 sequence (K7TP58 135-372 limits assumed): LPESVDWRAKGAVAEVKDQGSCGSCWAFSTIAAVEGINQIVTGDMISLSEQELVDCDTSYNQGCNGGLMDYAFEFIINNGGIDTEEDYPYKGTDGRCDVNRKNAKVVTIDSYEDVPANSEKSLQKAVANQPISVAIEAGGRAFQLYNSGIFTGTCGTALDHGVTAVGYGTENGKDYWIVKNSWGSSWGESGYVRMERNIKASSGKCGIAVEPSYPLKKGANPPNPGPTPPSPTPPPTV

`CC(C)C[C@H](NC(=O)[C@H]1O[C@@H]1C(=O)O)C(=O)NCCCCN=C(N)N` [E-64] was tested, and the IC50 (CP1C) was 3.2 ± 0.2 nM and the IC50 (CP1B) was 10 ± 0.9 nM.
